Measured values reported in publication PMC9505254 (Pathogens, 2022).
“Also recorded” adds a separate entry of the source.

Key:
[1] = tested on: type-O human erythrocytes
[2] = tested on: type-B human erythrocytes
[3] = tested on: type-A human erythrocytes
[4] = tested on: S. aureus (ATCC 25923) biofilm; assay: Inhibition of biofilm formation (crystal violet); type: cell-based; conditions: Staphylococcus aureus, ATCC25923, alone at 0.2 µg mL−1, 48 h, 37 °C, A600, triplicate
Experimental: The assay was made in flat-bottom 96-well polystyrene microplates as described by Bezerra et al.. The cell suspension was prepared using a single colony of S. aureus from a Petri dish with Mueller–Hinton broth (stock bacteria). The colony was transferred to Mueller–Hinton broth and incubated at 37 ℃ for 24 h. After, the cell suspension was standardized to a concentration of 10^6 cells mL^−1. […] The combination of peptide and antibiotic was made from the highest concentration of the peptide combined with the lowest antibiotic concentration and vice versa. After the incubation period, the supernatant was removed carefully from each well and washed one time with sterile NaCl 0.15 M solution. […] The absorbances were obtained via a microplate reader (BioTek^TM Epoch, BioTek Instruments, Inc., Winooski, VT, USA) at 600 nm. The experiment was repeated three times.

[5] = tested on: S. aureus (ATCC 25923) preformed biofilm; assay: Reduction of preformed biofilm mass (crystal violet); type: cell-based, Staphylococcus aureus
Experimental: After the incubation period, the supernatant was removed carefully from each well and washed one time with sterile NaCl 0.15 M solution. […] The absorbances were obtained via a microplate reader (BioTek^TM Epoch, BioTek Instruments, Inc., Winooski, VT, USA) at 600 nm. The experiment was repeated three times. The assay to observe the preformed biofilm reduction was conducted the same as described above but with some adjustments. […] The microplates were incubated in the dark, at 37 ℃, for 24 h. After incubation, the biofilm was washed, dried, and stained, and absorbance was taken as above.

[6] = tested on: S. aureus biofilm cells; assay: ROS overproduction (DCFH-DA, fluorescence microscopy); conditions: ciprofloxacin alone at 6.2, 0.2, 25 or 0.02 µg mL−1 (Figures 4 and 5)
Experimental: The ROS overproduction was determined following the method described by Bezerra et al. [13]. The assays were conducted as the same for PI analysis. Then, 20 μL of 2',7' […] diacetate (DCFH-DA, Sigma, St. Louis, MI, USA) was added and incubated in the dark for 30 min at 24 °C. Finally, the biofilms were washed with 0.15 M NaCl and observed under a fluorescence microscope (Olympus System BX 41, Tokyo, Japan) with an excitation wavelength of 488 nm and an emission wavelength of 525 nm.

Row | Molecule | % Hemolysis Type-O Blood [1] [%] | % Hemolysis Type-B Blood [2] [%] | % Hemolysis Type-A Blood [3] [%] | inhibition at 0.2 µg/mL [4] [%] | reduction of preformed biofilm ([5]; alone at 6.2 µg mL−1, 24 h biofilm, 24 h treatment, 37 °C, crystal violet, A600) [%] | reduction of preformed biofilm ([5]; alone at 25 µg mL−1) [%] | reduction of the biomass of preformed biofilm ([5]; ciprofloxacin alone at the Figure 1D concentrations (0.02, 0.39, 0.78, 6.2 µg mL−1)) | reduction of the biomass of preformed biofilm ([5]; each alone at the concentrations of the two Figure 1C combinations (RcAlb-PepI 0.04 and 0.2; ciprofloxacin 25 and 6.2 µg mL−1)) | ROS overproduction [6]
1 | Triton X-100 | 100 ± 0.005 | 100 ± 0.001 | 100 ± 0.001 | – | – | – | – | – | –
2 | O=C(O)c1cn(C2CC2)c2cc(N3CCNCC3)c(F)cc2c1=O [Ciprofloxacin] | – | – | – | 10 | 0 | 8 | not effective | not effective | did not induce ROS; also recorded: not able to induce ROS accumulation
